Legend:
Experiment in all cases: relative viability (nuclei count vs DMSO), 5 days (fraction); higher = more cells survive
Tipifarnib + Navitoclax = compound: Cn1cncc1[C@@](N)(c1ccc(Cl)cc1)c1ccc2c(c1)c(-c1cccc(Cl)c1)cc(=O)n2C [Tipifarnib] + CC1(C)CCC(c2ccc(Cl)cc2)=C(CN2CCN(c3ccc(C(=O)NS(=O)(=O)c4ccc(N[C@H](CCN5CCOCC5)CSc5ccccc5)c(S(=O)(=O)C(F)(F)F)c4)cc3)CC2)C1 [Navitoclax] (partner 0.5 µM)
Method in brief: (§1)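 Lung cancer cell lines in 1536-well plates got either a single drug or a fixed anchor-drug dose together with five library-drug doses (not always all listed) in √10 steps, by pin tool, on the day after seeding. Nuclei were counted after 5 days, and relative viability is the treated-to-vehicle ratio of nuclei counts. Values are medians of duplicate plates.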

Tipifarnib + Crizotinib = compound: Cn1cncc1[C@@](N)(c1ccc(Cl)cc1)c1ccc2c(c1)c(-c1cccc(Cl)c1)cc(=O)n2C [Tipifarnib] + C[C@@H](Oc1cc(-c2cnn(C3CCNCC3)c2)cnc1N)c1c(Cl)ccc(F)c1Cl [Crizotinib] (partner 1 µM)
Method in brief: as §1

Tipifarnib + Dasatinib = compound: Cn1cncc1[C@@](N)(c1ccc(Cl)cc1)c1ccc2c(c1)c(-c1cccc(Cl)c1)cc(=O)n2C [Tipifarnib] + Cc1nc(Nc2ncc(C(=O)Nc3c(C)cccc3Cl)s2)cc(N2CCN(CCO)CC2)n1 [Dasatinib] (partner 0.075 µM)
Method in brief: as §1

Tipifarnib + Vorinostat = compound: Cn1cncc1[C@@](N)(c1ccc(Cl)cc1)c1ccc2c(c1)c(-c1cccc(Cl)c1)cc(=O)n2C [Tipifarnib] + O=C(CCCCCCC(=O)Nc1ccccc1)NO [Vorinostat] (partner 1 µM)
Method in brief: as §1

Row | Cell Line | relative viability (Tipifarnib + Navitoclax; first compound 0.01 µM) | relative viability (Tipifarnib + Navitoclax; first compound 0.03162 µM) | relative viability (Tipifarnib + Navitoclax; first compound 0.1 µM) | relative viability (Tipifarnib + Navitoclax; first compound 0.3162 µM) | relative viability (Tipifarnib + Navitoclax; first compound 1 µM) | relative viability (Tipifarnib + Crizotinib; first compound 0.01 µM) | relative viability (Tipifarnib + Crizotinib; first compound 0.03162 µM) | relative viability (Tipifarnib + Crizotinib; first compound 0.1 µM) | relative viability (Tipifarnib + Crizotinib; first compound 0.3162 µM) | relative viability (Tipifarnib + Crizotinib; first compound 1 µM) | relative viability (Tipifarnib + Dasatinib; first compound 0.01 µM) | relative viability (Tipifarnib + Dasatinib; first compound 0.03162 µM) | relative viability (Tipifarnib + Dasatinib; first compound 0.1 µM) | relative viability (Tipifarnib + Dasatinib; first compound 0.3162 µM) | relative viability (Tipifarnib + Dasatinib; first compound 1 µM) | relative viability (Tipifarnib + Vorinostat; first compound 0.01 µM) | relative viability (Tipifarnib + Vorinostat; first compound 0.03162 µM) | relative viability (Tipifarnib + Vorinostat; first compound 0.1 µM) | relative viability (Tipifarnib + Vorinostat; first compound 0.3162 µM) | relative viability (Tipifarnib + Vorinostat; first compound 1 µM)
1 | SK-MES-1 | 1.3 | 1.11 | 0.866 | 0.785 | 0.655 | 0.974 | 0.864 | 0.95 | 0.69 | 0.656 | 0.44 | 0.341 | 0.337 | 0.18 | 0.249 | 1.14 | 0.99 | 1.05 | 0.842 | 0.57
2 | NCI-H1666 | 0.853 | 0.758 | 0.727 | 0.644 | 0.637 | 0.958 | 0.816 | 0.761 | 0.626 | 0.843 | 0.791 | 0.779 | 0.785 | 0.748 | 0.605 | 1.05 | 0.874 | 1.02 | 0.883 | 0.878
3 | NCI-H1355 | 0.906 | 0.791 | 0.767 | 0.614 | 0.628 | 1.19 | 1.05 | 0.764 | 0.64 | 0.673 | 0.684 | 0.687 | 0.524 | 0.496 | 0.443 | 0.625 | 0.544 | 0.409 | 0.466 | 0.301
4 | HCC-827 | 0.941 | 0.95 | 0.793 | 0.666 | 0.66 | 0.868 | 0.883 | 0.712 | 0.617 | 0.552 | 0.372 | 0.363 | 0.446 | 0.403 | 0.431 | 0.926 | 0.674 | 0.69 | 0.485 | 0.294
5 | HARA | 1.18 | 1.14 | 1.18 | 1.14 | 1.13 | 1.07 | 0.917 | 1 | 1.01 | 1.02 | 0.255 | 0.366 | 0.296 | 0.299 | 0.168 | 0.513 | 0.406 | 0.364 | 0.325 | 0.326
6 | HCC-366 | 1.14 | 0.762 | 0.751 | 0.483 | 0.188 | 0.695 | 0.389 | 0.151 | 0.17 | 0.034 | 0.78 | 0.65 | 0.353 | 0.331 | 0.046 | 0.249 | 0.145 | 0.102 | 0.067 | 0.0373
7 | NCI-H322M | 1.18 | 1.2 | 1.31 | 0.971 | 1.19 | 0.874 | 0.854 | 0.79 | 0.463 | 0.587 | 0.236 | 0.27 | 0.259 | 0.246 | 0.285 | 0.869 | 0.991 | 0.813 | 0.863 | 0.725
8 | NCI-H2347 | 0.782 | 0.576 | 0.643 | 0.627 | 0.598 | 0.53 | 0.546 | 0.57 | 0.476 | 0.486 | 0.278 | 0.293 | 0.256 | 0.303 | 0.277 | 0.547 | 0.515 | 0.497 | 0.431 | 0.476
9 | NCI-H1975 | 1.29 | 1.04 | 1.08 | 0.541 | 0.734 | 0.93 | 0.989 | 0.717 | 0.566 | 0.49 | 0.383 | 0.356 | 0.412 | 0.238 | 0.185 | 0.639 | 0.682 | 0.588 | 0.485 | 0.491
10 | UMC-11 | 0.263 | 0.211 | 0.235 | 0.191 | 0.194 | 0.24 | 0.278 | 0.224 | 0.181 | 0.184 | 0.419 | 0.441 | 0.422 | 0.357 | 0.29 | 0.314 | 0.348 | 0.338 | 0.291 | 0.307
11 | A-427 | 1 | 0.951 | 0.955 | 0.874 | 0.812 | 1.01 | 0.866 | 0.782 | 0.732 | 0.844 | 0.753 | 0.719 | 0.598 | 0.494 | 0.326 | 0.839 | 0.849 | 0.621 | 0.8 | 0.655
12 | LCLC-97TM1 | 0.557 | 0.359 | 0.241 | 0.446 | 0.19 | 0.329 | 0.295 | 0.244 | 0.227 | 0.15 | 0.833 | 0.704 | 0.745 | 0.64 | 0.383 | 0.657 | 0.166 | 0.518 | 0.394 | 0.121
13 | HCC-15 | 0.66 | 0.618 | 0.555 | 0.335 | 0.334 | 0.666 | 0.601 | 0.396 | 0.41 | 0.448 | 0.627 | 0.556 | 0.444 | 0.377 | 0.168 | 0.833 | 0.701 | 0.673 | 0.589 | 0.53
14 | NCI-H647 | 0.983 | 0.813 | 0.822 | 0.397 | 0.37 | 0.76 | 0.618 | 0.515 | 0.367 | 0.521 | 0.205 | 0.159 | 0.167 | 0.127 | 0.0682 | 0.321 | 0.326 | 0.352 | 0.157 | 0.13
15 | SW 1573 | 1.05 | 0.678 | 0.49 | 0.407 | 0.331 | 0.767 | 0.701 | 0.462 | 0.317 | 0.316 | 0.379 | 0.33 | 0.297 | 0.217 | 0.198 | 0.701 | 0.434 | 0.308 | 0.312 | 0.179
16 | NCI-H1651 | 1.15 | 1.21 | 0.994 | 0.912 | 0.895 | 0.951 | 0.856 | 0.893 | 0.789 | 0.843 | 0.474 | 0.209 | 0.389 | 0.363 | 0.196 | 0.545 | 0.54 | 0.537 | 0.507 | 0.335
